Drawing on patent US10913751B2, “1,3-diazo-4-oxa-[3.3.1]-bicyclic derivatives, process for their manufacture and their use as a medicament, in particular for treating diabetes” (UNIVERSITA' DI PISA, priority 2017, dated 2021), this text covers melting point and EC50 for 2 molecules.

One series has as its system GLP-1 receptor. Kind of series: ELISA assay of secreted GLP-1 forms (mSTC-1 GLP-1 sec CRC). Type of series: cell-based. The conditions noted are these: mSTC-1 cells, GLP-1 secretion, concentration-response curve, ELISA readout, FIG. 1; read-out: action as a GLP-1 receptor agonist (mSTC-1 GLP-1 sec CRC). The protocol:
The biological activity of the synthesised compounds was measured with an ELISA assay.
The biological activity of the compound (5S*,9R*)-9-phenyl-3-phenylacetyl-4-oxa-1,3-diazabicyclo[3.3.1]non-6-ene (Ib) as a GLP-1 receptor agonist was measured via an ELISA assay specifically modified in order to identify the forms of GLP-1 secreted.
(In general: ELISA stands for enzyme-linked immunosorbent assay.)

pEC50: −log10 of the molar value.

One may read the melting point as the temperature, or range, at which the solid turns liquid. In turn, `O=C(Cc1ccccc1)N1CN2CC=C[C@H](O1)[C@H]2c1ccccc1` (relative stereo) [Ib, (5S*,9R*)-9-phenyl-3-phenylacetyl-4-oxa-1,3-diazabicyclo[3.3.1]non-6-ene] displayed a melting point of 156 to 159 °C. The pEC50 with GLP-1 receptor is 4.96.

Regarding `CC[C@@H]1[C@@H]2C=CCN1CN(C(=O)Cc1ccccc1)O2` (relative stereo) [If, (5S*,9R*)-9-ethyl-3-phenylacetyl-4-oxa-1,3-diazabicyclo[3.3.1]non-6-ene], the melting point lay within 68 to 70 °C.
